Data set [1] is described as follows: Stability of QC samples of the analytes in rat plasma under storage conditions. The conditions noted are these: n = 6. The class given is physicochemical. The protocol:
Preparation of quality control (QC) samples with three concentrations (low, medium, and high) of 16, 160, and 3,200 ng/ml for ellagic acid; 1.6, 16, 320 ng/ml for protocatechuic acid, ethyl gallate and 1,2,3,4,6-O-pentagalloylglucose; 40, 400 and 8,000 ng/ml for chebulic acid, gallic acid, corilagin and chebulinic acid and 160, 1,600, 32000 ng/ml for chebulagic acid. Both QC samples and stock solutions were stored in a refrigerator at 4°C.
Under variable treatment conditions: stored for 12 h at auto-sampler, for 4 hours at room temperature, under three freeze-thaw cycles, and kept at −80°C for 7 days, quality control samples were analyzed to assess the stability of the nine analytes in plasma.

In the next data set the test system is HepG2 cells. Also on record: method as in Achari et al., 2011. The conditions noted are these: 50 μM; ref Achari et al., 2011; cited from earlier work.
Data set [2] is described as follows: Pharmacokinetic study in rats after oral administration of TC extracts (UPLC-MS/MS of plasma). The conditions noted are these: male, Sprague-Dawley, rat, plasma, po, 10 g/kg.
Experimental: UPLC-MS/MS system was used for analysis and monitoring, which consisted primarily of an Agilent 1290 UPLC system (Agilent Technologies, Germany) and an Agilent 6,470 series triple quad (TQ) mass spectrometer (MS) (Agilent Technologies, Singapore) equipped with an electrospray ionization source.
Separation was carried out on an ACQUITY UPLC® HSS T3 column (2.1 × 100 mm, 1.8 μm), and temperature in the column was kept at 20°C. In the mobile phase, 0.1% formic acid in water and acetonitrile were used as solvents A and B, respectively. Gradient elution was performed as follows: 1%–5% B at 0–3 min; 5%–30% B at 3–4 min; 30%–40% B at 4–8 min; 40%–100% B at 8–9 min; 100%–100% B at 9–12 min. The flow rate was set at 0.3 ml/min and the injection volume was 10 μL.
Multiple reaction monitoring (MRM) was used for quantitative analysis in negative (−) ionization mode. The mass spectrometric parameters were set as follows: drying gas (N2) temperature was 300°C; gas (N2) flow rate was 7 L/min; atomizer pressure was 35 psi; sheath gas flow was 11 L/min and capillary voltage was 3800 V. The specific mass spectrometric parameters of the precursor ion, product ion, fragmentor, collision energy, and ion modes of the nine compounds and IS are shown in Table 1.
The plasma sample (100 μl) was sequentially spiked with 20 μl IS solutions (caffeic acid, 1,000 ng/ml); 20 μL methanol, and 10 μl formic acid, then vortex-mixed for 1 min. The mixture was precipitated protein with 1,000 μl methanol by vortex mixing for 3 min. The supernatant was collected into a 1.5 ml clean centrifuge tube after centrifugation at for 10 min 14,000 rpm, and evaporated under a nitrogen stream until dry. After that, the residue was redissolved in 100 μl methanol, vortex-mixed for 3 min, then centrifuged for 10 min at 14,000 rpm. 10 μl analyte was injected into the UPLC-MS/MS system.
In this study, six of male rats were used, given free access to water, and fasted for 12 h before the experimental period. The TC extracts were dissolved in 0.5% CMC-Na aqueous solution as a suspension at a concentration of 1 g/ml. A dose of 10 g/kg of the suspension was administered to the rats orally, the blood samples of approximately 300 μL were drawn from the fundus venous plexus of rats pre- and post-oral administration at 0.00, 0.08, 0.17, 0.25, 0.50, 0.75, 1, 2, 4, 6, 8, 10, 12, 24, 36, 48, 60, 72, 84, 96, 120, 144 and 168 h, respectively. For analysis, the plasma supernatants collected from the centrifuged plasma were frozen at −80°C after centrifugation for 10 min at 6,000 rpm.
Data were expressed as mean ± standard deviation (mean ± SD). MassHunter Workstation software (version B.09.00) was quantitatively used to calculate the plasma concentrations of nine analytes. To evaluate the specific pharmacokinetic parameters, DAS Software (DAS 3.0, Medical College of Wannan, China) was used to process the pharmacokinetic results.
On the set-up of data set [3]: method as in Mishra et al., 2013. The conditions noted are these: dose of 40 mg/kg; ref Mishra et al., 2013; cited from earlier work.

On to `O=C(O)C[C@@H]1C(=O)O[C@H]2[C@@H]3OC(=O)c4cc(O)c(O)c(O)c4-c4c(cc(O)c(O)c4O)C(=O)OC[C@H]2O[C@@H](OC(=O)c2cc(O)c(O)c(O)c2)[C@@H]3OC(=O)c2cc(O)c(O)c3c2[C@H]1[C@H](O)C(=O)O3` [Chebulagic acid, chebulagic acid], for which the “Measured concentration after storage” value is 145.5 ± 16.4 ng/mL in data set [1] (spiked 160 ng/mL, autosampler for 12 h); 160.8 ± 6.2 ng/mL in data set [1] (spiked 160 ng/mL, room temperature for 4 h); 167.9 ± 7.8 ng/mL in data set [1] (spiked 160 ng/mL, three freeze-thaw cycles); 168.0 ± 4.2 ng/mL in data set [1] (spiked 160 ng/mL, −80°C for 7 days); 1,448.9 ± 70.5 ng/mL in data set [1] (spiked 1,600 ng/mL, autosampler for 12 h); 1,465.3 ± 158.2 ng/mL in data set [1] (spiked 1,600 ng/mL, room temperature for 4 h). Besides, the “Measured concentration after storage” value is 1,391.9 ± 61.5 ng/mL in data set [1] (spiked 1,600 ng/mL, three freeze-thaw cycles); 1,512.8 ± 65.1 ng/mL in data set [1] (spiked 1,600 ng/mL, −80°C for 7 days); 34277.3 ± 2,721.2 ng/mL in data set [1] (spiked 32000 ng/mL, autosampler for 12 h); 31970.0 ± 1,256.3 ng/mL in data set [1] (spiked 32000 ng/mL, room temperature for 4 h); 33770.8 ± 3,365.5 ng/mL in data set [1] (spiked 32000 ng/mL, three freeze-thaw cycles); 31615.2 ± 953.8 ng/mL in data set [1] (spiked 32000 ng/mL, −80°C for 7 days). Also, the “Sensitivity of HepG2 cells towards Dox induced cytotoxicity” value in the data set with HepG2 cells is recorded as “increased the sensitivity”. This compound gave an AUC in data set [2] of 231 ± 64.6 µg·h/mL. The compound further showed an AUC(0-inf) in data set [2] of 234 ± 65.7 µg·h/mL. For the same compound, the highest level in data set [2] (Cmax) was 4980 ng/mL. Also, the mean residence time (MRT) in data set [2] stood at 49.8 ± 4.87 h. In data set [2], this compound yielded a mean residence time MRT inf of 51.8 ± 5.3 h. Moreover, the Tmax in data set [2] was 5.67 ± 3.67 h. Also, the half-life in data set [2] was 20 ± 2.51 h.
On to `O=C(O)C[C@@H]1C(=O)O[C@H]2[C@H](OC(=O)c3cc(O)c(O)c(O)c3)[C@@H](OC(=O)c3cc(O)c(O)c4c3[C@H]1[C@H](O)C(=O)O4)[C@H](OC(=O)c1cc(O)c(O)c(O)c1)O[C@@H]2COC(=O)c1cc(O)c(O)c(O)c1` [Chebulinic acid, chebulinic acid], for which the “Measured concentration after storage” value in data set [1] (spiked 40 ng/mL, autosampler for 12 h) is on record as 42.2 ± 5.1 ng/mL; in data set [1] (spiked 40 ng/mL, room temperature for 4 h), 36.8 ± 3.9 ng/mL; in data set [1] (spiked 40 ng/mL, three freeze-thaw cycles), 41.8 ± 2.3 ng/mL; in data set [1] (spiked 40 ng/mL, −80°C for 7 days), 47.1 ± 1.6 ng/mL; in data set [1] (spiked 400 ng/mL, autosampler for 12 h), 359.7 ± 18.1 ng/mL; in data set [1] (spiked 400 ng/mL, room temperature for 4 h) it was 414.3 ± 21.9 ng/mL. The “Measured concentration after storage” value in data set [1] (spiked 400 ng/mL, three freeze-thaw cycles) is on record as 378.1 ± 29.2 ng/mL; in data set [1] (spiked 400 ng/mL, −80°C for 7 days) it was 373.5 ± 23.6 ng/mL; in data set [1] (spiked 8,000 ng/mL, autosampler for 12 h), 7,174.2 ± 321.2 ng/mL; in data set [1] (spiked 8,000 ng/mL, room temperature for 4 h), 8,592.3 ± 543.8 ng/mL; in data set [1] (spiked 8,000 ng/mL, three freeze-thaw cycles), 8,447.4 ± 574.6 ng/mL; in data set [1] (spiked 8,000 ng/mL, −80°C for 7 days) it was 8,787.4 ± 801 ng/mL. Also, the Anti-gastric ulcer effect result in data set [3] is on record as “good anti-gastric ulcer effect”. The compound also registered an exposure (AUC) in data set [2] of 38.2 ± 16.3 µg·h/mL. In data set [2], this compound registered an AUC(0-inf) of 41.9 ± 15.8 µg·h/mL. For the same compound, in data set [2], the highest concentration (Cmax) was 853 ± 433 ng/mL. This compound registered an MRT in data set [2] of 58.2 ± 5.63 h. The compound also returned an MRT inf in data set [2] of 76 ± 15.3 h. Moreover, the Tmax in data set [2] was 1.83 ± 0.41 h. The compound also had a half-life in data set [2] of 43.3 ± 13.2 h.
